Measurements reported in the supplement of paper PMC8671470.

What was measured:
Conditions in all cases: 72 h
[1] = test system: myeloid leukemia patient primary cells Pat.10; assay: cell viability (% survival relative to DMSO control); higher = less cytotoxic
Procedure, shortened: (§1)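 Seventy compounds were pre-printed on 384-well plates at five tenfold concentrations between 1 and 10,000 nM, in duplicate. Thawed mononuclear cells purified by Ficoll from AML or CML patients were added at 10,000 cells/well in RPMI 1640 with 10% FBS for 72 h. Viability by CellTiter-Glo was normalised to DMSO and 10 μM proteasome-inhibitor wells. Where stated, area under the curve was taken from log-logistic fits made with the drc and PharmacoGx R packages, each fit having four parameters.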

[2] = test system: myeloid leukemia patient primary cells Pat.9; assay: as above
Procedure, shortened: as §1

[3] = test system: myeloid leukemia patient primary cells Pat.15; assay: as above
Procedure, shortened: as §1

[4] = test system: myeloid leukemia patient primary cells Pat.8; assay: as above
Procedure, shortened: as §1

[5] = test system: myeloid leukemia patient primary cells Pat.5; assay: as above
Procedure, shortened: as §1

[6] = test system: myeloid leukemia patient primary cells Pat.13; assay: as above
Procedure, shortened: as §1

[7] = test system: myeloid leukemia patient primary cells Pat.14; assay: as above
Procedure, shortened: as §1

[8] = test system: myeloid leukemia patient primary cells Pat.6; assay: as above
Procedure, shortened: as §1

[9] = test system: myeloid leukemia patient primary cells Pat.12; assay: as above
Procedure, shortened: as §1

[10] = test system: myeloid leukemia patient primary cells Pat.7; assay: as above
Procedure, shortened: as §1

[11] = test system: myeloid leukemia patient primary cells Pat.3; assay: as above
Procedure, shortened: as §1

[12] = test system: myeloid leukemia patient primary cells Pat.11; assay: as above
Procedure, shortened: as §1

[13] = test system: myeloid leukemia patient primary cells Pat.2; assay: as above
Procedure, shortened: as §1

[14] = test system: myeloid leukemia patient primary cells Pat.1; assay: as above
Procedure, shortened: as §1

[15] = test system: myeloid leukemia patient primary cells Pat.4; assay: as above
Procedure, shortened: as §1

[16] = test system: SHI-1
Procedure, shortened: (§2)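 The IC50 was read from log-logistic dose–response fits. Fifteen myeloid leukaemia lines were exposed for 72 h at 37 °C with 5% CO2 to five tenfold doses from 1 to 10,000 nM in duplicate. ATP luminescence, normalised to vehicle and to a 10 µM positive control, was fitted with four parameters.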

[17] = test system: KG-1
Procedure, shortened: as §2

[18] = test system: KU-812
Procedure, shortened: as §2

[19] = test system: MV4-11
Procedure, shortened: as §2

[20] = test system: ML-2
Procedure, shortened: as §2

[21] = test system: K-562
Procedure, shortened: as §2

[22] = test system: NOMO-1
Procedure, shortened: as §2

[23] = test system: THP-1
Procedure, shortened: as §2

[24] = test system: MOLM-13
Procedure, shortened: as §2

[25] = test system: HL-60
Procedure, shortened: as §2

[26] = test system: Mono-Mac-6
Procedure, shortened: as §2

[27] = test system: BV-173
Procedure, shortened: as §2

[28] = test system: HEL
Procedure, shortened: as §2

[29] = test system: LAMA-84
Procedure, shortened: as §2

With `Fc1ccc(CNc2ncnc3ccc(F)cc23)cc1` [Spautin 1] the cell viability ([1]; 1 nM) was 73%, the cell viability ([1]; 10 nM) was 15.3% and the cell viability ([1]; 100 nM) was 96.8%. It also gave a cell viability ([1]; 1000 nM) of 78.5%, a cell viability ([1]; 10000 nM) of 47.9% and a cell viability ([2]; 1 nM) of 67.2%. The cell viability ([2]; 10 nM) was 7.92%, the cell viability ([2]; 100 nM) was 65.9% and the cell viability ([2]; 1000 nM) was 12.7%. It also gave a cell viability ([2]; 10000 nM) of 5.45%, a cell viability ([3]; 1 nM) of 96.5% and a cell viability ([3]; 10 nM) of 90.9%. It also gave a cell viability ([3]; 100 nM) of 91.5%, a cell viability ([3]; 1000 nM) of 79.4% and a cell viability ([3]; 10000 nM) of 25.9%. It also gave a cell viability ([4]; 1 nM) of 93.5%, a cell viability ([4]; 10 nM) of 82.1% and a cell viability ([4]; 100 nM) of 85.6%. The cell viability ([4]; 1000 nM) was 80.7%, the cell viability ([4]; 10000 nM) was 51.1% and the cell viability ([5]; 1 nM) was 84.9%. For the same molecule, the cell viability ([5]; 10 nM) was 17%, the cell viability ([5]; 100 nM) was 78.9% and the cell viability ([5]; 1000 nM) was 25.9%. The cell viability ([5]; 10000 nM) was 2.01%, the cell viability ([6]; 1 nM) was 97.7% and the cell viability ([6]; 10 nM) was 78.3%. It also gave a cell viability ([6]; 100 nM) of 89.4%, a cell viability ([6]; 1000 nM) of 75.7% and a cell viability ([6]; 10000 nM) of 34.9%. For the same molecule, the cell viability ([7]; 1 nM) was 87.2%, the cell viability ([7]; 10 nM) was 56.5% and the cell viability ([7]; 100 nM) was 90.5%. For the same molecule, the cell viability ([7]; 1000 nM) was 60.7%, the cell viability ([7]; 10000 nM) was 31.2% and the cell viability ([8]; 1 nM) was > 100%. For the same molecule, the cell viability ([8]; 10 nM) was 86.8%, the cell viability ([8]; 100 nM) was 96.6% and the cell viability ([8]; 1000 nM) was 87.9%. The cell viability ([8]; 10000 nM) was 42.2%, the cell viability ([9]; 1 nM) was 97.3% and the cell viability ([9]; 10 nM) was 87.3%. The cell viability ([9]; 100 nM) was > 100%, the cell viability ([9]; 1000 nM) was > 100% and the cell viability ([9]; 10000 nM) was 72.6%. For the same molecule, the cell viability ([10]; 1 nM) was 74.6%, the cell viability ([10]; 10 nM) was 70.9% and the cell viability ([10]; 100 nM) was > 100%. For the same molecule, the cell viability ([10]; 1000 nM) was 58.8%, the cell viability ([10]; 10000 nM) was 30.3% and the cell viability ([11]; 1 nM) was 63.4%. The cell viability ([11]; 10 nM) was 49.7%, the cell viability ([11]; 100 nM) was > 100% and the cell viability ([11]; 1000 nM) was 33.1%. The cell viability ([11]; 10000 nM) was 69.9%, the cell viability ([12]; 1 nM) was > 100% and the cell viability ([12]; 10 nM) was 96.2%. For the same molecule, the cell viability ([12]; 100 nM) was 97.9%, the cell viability ([12]; 1000 nM) was 92.2% and the cell viability ([12]; 10000 nM) was 84.7%. For the same molecule, the cell viability ([13]; 1 nM) was 97.1%, the cell viability ([13]; 10 nM) was 88.7% and the cell viability ([13]; 100 nM) was > 100%. For the same molecule, the cell viability ([13]; 1000 nM) was 87.3%, the cell viability ([13]; 10000 nM) was 77.2% and the cell viability ([14]; 1 nM) was 97%. It also gave a cell viability ([14]; 10 nM) of 84.4%, a cell viability ([14]; 100 nM) of 88.1% and a cell viability ([14]; 1000 nM) of 81.7%. It also gave a cell viability ([14]; 10000 nM) of 46.4%, a cell viability ([15]; 1 nM) of 77.2% and a cell viability ([15]; 10 nM) of 87.3%. For the same molecule, the cell viability ([15]; 100 nM) was 96.2%, the cell viability ([15]; 1000 nM) was 70.4% and the cell viability ([15]; 10000 nM) was 50.5%. For the same molecule, the “IC50 (cell viability)” value [16] was > 10 µM, the “IC50 (cell viability)” value [17] was 1.57 µM and the “IC50 (cell viability)” value [18] was 1.39 µM. For the same molecule, the “IC50 (cell viability)” value [19] was 1.52 µM, the “IC50 (cell viability)” value [20] was > 10 µM and the “IC50 (cell viability)” value [21] was 1.34 µM. The “IC50 (cell viability)” value [22] was > 10 µM, the “IC50 (cell viability)” value [23] was > 10 µM and the “IC50 (cell viability)” value [24] was > 10 µM. For the same molecule, the “IC50 (cell viability)” value [25] was 9.64 µM, the “IC50 (cell viability)” value [26] was > 10 µM and the “IC50 (cell viability)” value [27] was 2.75 µM. The “IC50 (cell viability)” value [28] was 9.11 µM and the “IC50 (cell viability)” value [29] was 1.49 µM.
`CC(C)(F)C[C@H](N[C@@H](c1ccc(-c2ccc(S(C)(=O)=O)cc2)cc1)C(F)(F)F)C(=O)NC1(C#N)CC1` [Odanacatib] was tested, and the “IC50 (cell viability)” value [16] was > 10 µM, the “IC50 (cell viability)” value [17] was > 10 µM and the “IC50 (cell viability)” value [18] was > 10 µM. For the same molecule, the “IC50 (cell viability)” value [19] was > 10 µM, the “IC50 (cell viability)” value [20] was > 10 µM and the “IC50 (cell viability)” value [21] was > 10 µM. The “IC50 (cell viability)” value [22] was > 10 µM, the “IC50 (cell viability)” value [23] was > 10 µM and the “IC50 (cell viability)” value [24] was > 10 µM. The “IC50 (cell viability)” value [25] was > 10 µM, the “IC50 (cell viability)” value [26] was > 10 µM and the “IC50 (cell viability)” value [27] was > 10 µM. The “IC50 (cell viability)” value [28] was > 10 µM and the “IC50 (cell viability)” value [29] was > 10 µM.
For `CC(=O)N1CCN(c2ccc(OC[C@@H]3CO[C@@](Cn4ccnc4)(c4ccc(Cl)cc4Cl)O3)cc2)CC1` (racemic) [Ketoconazole], the “IC50 (cell viability)” value [16] was > 10 µM, the “IC50 (cell viability)” value [17] was 8.35 µM and the “IC50 (cell viability)” value [18] was > 10 µM. The “IC50 (cell viability)” value [19] was > 10 µM, the “IC50 (cell viability)” value [20] was > 10 µM and the “IC50 (cell viability)” value [21] was > 10 µM. The “IC50 (cell viability)” value [22] was > 10 µM, the “IC50 (cell viability)” value [23] was > 10 µM and the “IC50 (cell viability)” value [24] was > 10 µM. The “IC50 (cell viability)” value [25] was > 10 µM, the “IC50 (cell viability)” value [26] was > 10 µM and the “IC50 (cell viability)” value [27] was > 10 µM. The “IC50 (cell viability)” value [28] was > 10 µM and the “IC50 (cell viability)” value [29] was > 10 µM.
`CC(C)c1ccc2c(c1)c(SC(C)(C)C)c(CC(C)(C)C(=O)O)n2Cc1ccc(Cl)cc1` [MK-886] was tested, and the “IC50 (cell viability)” value [16] was > 10 µM, the “IC50 (cell viability)” value [17] was > 10 µM and the “IC50 (cell viability)” value [18] was > 10 µM. For the same molecule, the “IC50 (cell viability)” value [19] was > 10 µM, the “IC50 (cell viability)” value [20] was > 10 µM and the “IC50 (cell viability)” value [21] was > 10 µM. For the same molecule, the “IC50 (cell viability)” value [22] was > 10 µM, the “IC50 (cell viability)” value [23] was > 10 µM and the “IC50 (cell viability)” value [24] was > 10 µM. The “IC50 (cell viability)” value [25] was > 10 µM, the “IC50 (cell viability)” value [26] was > 10 µM and the “IC50 (cell viability)” value [27] was > 10 µM. For the same molecule, the “IC50 (cell viability)” value [28] was > 10 µM and the “IC50 (cell viability)” value [29] was > 10 µM.
